According to US6569637B1, “Diagnostic reagents for renal function disorders and method for analyzing urine samples” (Kikkoman Corporation, priority 1997, dated 2003):

Set-up: species or system patient
Conditions: in vivo
Procedure: An ATP standard reagent was prepared by dissolving sodium salt of ATP in 25 mM HEPES buffer (pH7.75) at a concentration of 2×10^−6M.
Two-hundreds μl of a urine sample obtained from a patient suffering from renal dysfunction who received cisplatin administration was added and reacted with 200 μl of the ATP standard reagent prepared as described above at 37° C. for 30 minutes.
The solution was 10-fold diluted with 20 mM phosphate buffer (pH7.5), and 200 μl of the diluted solution was transferred into a test tube for ATP measurement. Then, 100 μl of luciferin-luciferase luminescent reagent which had been prepared by dissolving the freeze-dried luminescent reagent (included in ATP assay kit “CheckLite™” available from Kikkoman Corporation) in a solution for dissolving the reagent (also included in the kit) was added to the solution in the tube. The luminescent level based on the ATP level remaining after the reaction was immediately determined using Lumitester K-210.
On the other hand, the luminescent level corresponding to the ATP level in a urine sample before the reaction was determined in the same matter.
Diagnosis of renal dysfunction by ATP method was performed by calculating the ATP index (residual ATP %) according to the equation below and determining whether the subject is a patient with renal dysfunction S or a healthy individual R according to the following criteria. […]

## N.N.[Cl][Pt][Cl] [cisplatin]
  residual ATP % in urine sample (ATP index): decreases to the minimum
